Reference: patent US9783537B2, “3-(4-ethylnylphenyl) pyridopyrimidinone compounds and process for preparation thereof useful as potential anticancer agents” (Council of Scientific & Industrial Research, priority 2013, dated 2017)
Like-named read-outs stand apart in the source and are kept apart here.

Key:
UACC-62 = assay: SRB 48 h growth assay, Melanoma UACC-62; assay type: cell-based, human; settings: UACC-62, Melanoma
NCI/ADR-RES = assay: SRB 48 h growth assay, Ovarian NCI/ADR-RES; assay type: cell-based, human
SN12C = assay: SRB 48 h growth assay, Renal SN12C; assay type: cell-based, human
COLO 205 = assay: SRB 48 h growth assay, Colon COLO 205; assay type: cell-based, human; settings: COLO 205, Colon
SF-268 = assay: SRB 48 h growth assay, CNS SF-268; assay type: cell-based, human; settings: SF-268, CNS
HT-29 = assay: SRB 48 h growth assay, Colon HT-29; assay type: cell-based, human; settings: HT-29, Colon
KM12 = assay: SRB 48 h growth assay, Colon KM12; assay type: cell-based, human
NCI-H23 = assay: SRB 48 h growth assay, Non-small Cell Lung NCI-H23; assay type: cell-based, human; settings: for GI50: Homo sapiens
M14 = assay: SRB 48 h growth assay, Melanoma M14; assay type: cell-based, human; settings: for GI50: Homo sapiens
[1] = in vitro anticancer activity, non-small cell lung panel; assay type: cell-based; settings: Homo sapiens; nine non-small cell lung cancer cell lines, exposure at least 48 h; read-out: GI50, range over panel
HL-60(TB) = assay: SRB 48 h growth assay, Leukemia HL-60(TB); assay type: cell-based, human
NCI-H322M = assay: SRB 48 h growth assay, Non-small Cell Lung NCI-H322M; assay type: cell-based, human
LOX IMVI = assay: SRB 48 h growth assay, Melanoma LOX IMVI; assay type: cell-based, human; settings: for GI50: Homo sapiens
MDA-MB-231/ATCC = assay: SRB 48 h growth assay, Breast MDA-MB-231/ATCC; assay type: cell-based, human
RPMI-8226 = assay: SRB 48 h growth assay, Leukemia RPMI-8226; assay type: cell-based, human; settings: RPMI-8226, Leukemia; for GI50: Homo sapiens
OVCAR-3 = assay: SRB 48 h growth assay, Ovarian OVCAR-3; assay type: cell-based, human; settings: OVCAR-3, Ovarian
[2] = tested on: seven colon cancer cell line (COLO 205, HCC-2998, HCT-116, HCT-15, HT29, KM12 and SW-620); assay: in vitro anticancer activity, colon panel; assay type: cell-based; settings: Homo sapiens; seven colon cancer cell lines, exposure at least 48 h; read-out: GI50, range over panel
[3] = tested on: two prostate cancer cell line (PC-3, DU-145); assay: in vitro anticancer activity, prostate panel; assay type: cell-based; settings: Homo sapiens; two prostate cancer cell lines, exposure at least 48 h; read-out: GI50, range over panel
SK-OV-3 = assay: SRB 48 h growth assay, Ovarian SK-OV-3; assay type: cell-based, human; settings: SK-OV-3, Ovarian
OVCAR-5 = assay: SRB 48 h growth assay, Ovarian OVCAR-5; assay type: cell-based, human; settings: OVCAR-5, Ovarian; for GI50: Homo sapiens
MOLT-4 = assay: SRB 48 h growth assay, Leukemia MOLT-4; assay type: cell-based, human; settings: MOLT-4, Leukemia
HCT-116 = assay: SRB 48 h growth assay, Colon HCT-116; assay type: cell-based, human; settings: HCT-116, Colon
MCF7 = assay: SRB 48 h growth assay, Breast MCF7; assay type: cell-based, human; settings: Homo sapiens
SK-MEL-2 = assay: SRB 48 h growth assay, Melanoma SK-MEL-2; assay type: cell-based, human; settings: SK-MEL-2, Melanoma; for GI50: Homo sapiens
OVCAR-4 = assay: SRB 48 h growth assay, Ovarian OVCAR-4; assay type: cell-based, human; settings: OVCAR-4, Ovarian
HOP-62 = assay: SRB 48 h growth assay, Non-small Cell Lung HOP-62; assay type: cell-based, human; settings: HOP-62, Non-small Cell Lung; for GI50: Homo sapiens
786-0 = assay: SRB 48 h growth assay, Renal 786-0; assay type: cell-based, human; settings: 786-0, Renal; for GI50: Homo sapiens
[4] = Homo sapiens, read-out: Growth Inhibition GI50
[5] = Homo sapiens, read-out: Log10 GI50 (converted)
[6] = Homo sapiens, read-out: Log10 LC50 (converted)
[7] = read-out: Growth Inhibition GI50
[8] = read-out: Log10 GI50 (converted)

C#Cc1ccc(-n2c(/C=C/c3ccc4ccccc4n3)nc3ncccc3c2=O)cc1 [4t, (E)-3-(4-Ethynylphenyl)-2-(2-(quinolin-2-yl)vinyl)pyrido[2,3-d]pyrimidin-4(3H)-one]
GI50 (UACC-62; [4]): 390 nM | GI50 (UACC-62; [5]): 398 nM | CC50 (UACC-62; [6]): 9330 nM | Log10 TGI50 (UACC-62): −5.67 | Log10 TGI50 (NCI/ADR-RES): −5.75 | GI50 (NCI/ADR-RES; [4]): 380 nM | GI50 (NCI/ADR-RES; [5]): 380 nM | CC50 (NCI/ADR-RES; [6]): > 100000 nM | Log10 TGI50 (SN12C): −5.67 | GI50 (SN12C; [4]): 390 nM | GI50 (SN12C; [5]): 389 nM | CC50 (SN12C; [6]): > 100000 nM | Log10 TGI50 (COLO 205): −6.13 | GI50 (COLO 205; [4]): 300 nM | GI50 (COLO 205; [5]): 302 nM | CC50 (COLO 205; [6]): 3630 nM | GI50 (SF-268; [4]): 380 nM | GI50 (SF-268; [5]): 389 nM | CC50 (SF-268; [6]): > 100000 nM | Log10 TGI50 (SF-268): −5.74 | Log10 TGI50 (HT-29): −5.96 | GI50 (HT-29; [4]): 360 nM | GI50 (HT-29; [5]): 372 nM | CC50 (HT-29; [6]): 4270 nM | Log10 TGI50 (KM12): −5.97 | GI50 (KM12; [4]): 320 nM | GI50 (KM12; [5]): 324 nM | CC50 (KM12; [6]): 3470 nM | Log10 TGI50 (NCI-H23): −5.62 | GI50 (NCI-H23; [7]): 700 nM | GI50 (NCI-H23; [8]): 708 nM | Log10 TGI50 (M14): −6.18 | GI50 (M14; [7]): 260 nM | GI50 (M14; [8]): 263 nM | GI50 [1]: 1800 to 5660 nM | Log10 TGI50 (HL-60(TB)): −6.07 | GI50 (HL-60(TB); [4]): 290 nM | GI50 (HL-60(TB); [5]): 295 nM | CC50 (HL-60(TB); [6]): > 100000 nM | Log10 TGI50 (NCI-H322M): −5.62 | GI50 (NCI-H322M; [4]): 520 nM | GI50 (NCI-H322M; [5]): 525 nM | CC50 (NCI-H322M; [6]): > 100000 nM | Log10 TGI50 (LOX IMVI): −5.99 | GI50 (LOX IMVI; [7]): 320 nM | GI50 (LOX IMVI; [8]): 324 nM | Log10 TGI50 (MDA-MB-231/ATCC): −5.93 | GI50 (MDA-MB-231/ATCC; [4]): 330 nM | GI50 (MDA-MB-231/ATCC; [5]): 331 nM | CC50 (MDA-MB-231/ATCC; [6]): > 100000 nM | GI50 (RPMI-8226; [7]): 260 nM | GI50 (RPMI-8226; [8]): 269 nM | Log10 TGI50 (RPMI-8226): −5.99 | GI50 (OVCAR-3; [4]): 300 nM | GI50 (OVCAR-3; [5]): 302 nM | CC50 (OVCAR-3; [6]): 4790 nM | Log10 TGI50 (OVCAR-3): −6.06 | GI50 [2]: 3550 to 52800 nM | GI50 [3]: 3870 to 4100 nM | GI50 (SK-OV-3; [4]): 320 nM | GI50 (SK-OV-3; [5]): 324 nM | CC50 (SK-OV-3; [6]): > 100000 nM | Log10 TGI50 (SK-OV-3): −6.03 | GI50 (OVCAR-5; [7]): 310 nM | GI50 (OVCAR-5; [8]): 309 nM | Log10 TGI50 (OVCAR-5): −5.97 | GI50 (MOLT-4; [4]): 450 nM | GI50 (MOLT-4; [5]): 457 nM | CC50 (MOLT-4; [6]): > 100000 nM | Log10 TGI50 (MOLT-4): >−4.00 | Log10 TGI50 (HCT-116): −5.92 | GI50 (HCT-116; [4]): 340 nM | GI50 (HCT-116; [5]): 347 nM | CC50 (HCT-116; [6]): 3890 nM | GI50 (MCF7; [7]): 280 nM | GI50 (MCF7; [8]): 288 nM | CC50 (MCF7; read-out: Log10 LC50 (converted)): > 100000 nM | GI50 (SK-MEL-2; [7]): 410 nM | GI50 (SK-MEL-2; [8]): 417 nM | Log10 TGI50 (SK-MEL-2): −5.80 | GI50 (OVCAR-4; [4]): 330 nM | GI50 (OVCAR-4; [5]): 339 nM | CC50 (OVCAR-4; [6]): > 100000 nM | Log10 TGI50 (OVCAR-4): −5.46 | Log10 TGI50 (HOP-62): −5.72 | GI50 (HOP-62; [7]): 460 nM | GI50 (HOP-62; [8]): 468 nM | Log10 TGI50 (786-0): −5.88 | GI50 (786-0; [7]): 380 nM | GI50 (786-0; [8]): 389 nM
